Legend:
[1] = test system: Mouse preadipocyte strain 3T3-L1; test: Inhibition of differentiation as an indication of acetic acid uptake; format: cell-based; details: control (0.01% dimethylsulfoxide) = 100%; for activity at 0.1 µM: Mus musculus, 3T3-L1, 0.1 μM test substance, read-out: Rate of Uptake (%) of [2-14C] acetic acid; for Rate of Uptake (%) of [2-14C] acetic acid: 0.1 μM test substance
Procedure, shortened: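 Confluent 3T3-L1 cells induced to differentiate for 4 days (insulin, IBMX, dexamethasone, 5% FBS) with test compound at 0.1 μM final or 0.01% DMSO, then 2 days in insulin maintenance medium, at 37 °C, 10% CO2. [2-14C]acetic acid uptake over 1 hr counted by scintillation; expressed as % of DMSO control.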

[2] = test system: human colon cancer cells COL-2-JCK; test: Inhibition of colony forming activity in human colon cancer cells; format: cell-based; details: 1 μM test compound, 10 days, sum of colony areas vs control; for inhibition at 1 µM: Homo sapiens, 240 h, read-out: Inhibition Rate (%) against the colony forming activity
Experimental: For the medium to culture the human colon cancer cells, D-MEM/F-12 medium containing inactivated bovine fetal serum at a concentration of 10% (GIBCO) was used. The human colon cancer cells COL-2-JCK (purchased from Institute for Experimental Animals) grown in mass formation in a plastic dish for the cell culture with an inner diameter of 100 mm were stripped off from the dish by using EDTA (ethylenediaminetetraacetic acid) and 0.05% trypsin solution. Then, a cell dilution solution was prepared at a concentration of 100 cells/mL solution which was diluted with the medium (D-MEM/F-12).
Three (3) mL of the cell solution were inoculated in each well of a 6-well plastic plate (300 cells/well). The test compound that was dissolved in DMSO solution so as to be a final concentration of 1 μM of the test compound and that of DMSO solution of 0.1% was added to each well. DMSO solution alone was added into the well for the control so as to be a final concentration of 0.1%.
The cells in each well were cultured for 10 days at 37° C. in the presence of 5% CO2. After the culturing was finalised, each well was washed once with Dulbecco-phosphate-buffer-saline solution (bivalent anion). Then, 1.5 ml of neutral buffered formalin solution containing 0.02% crystal violet was added to each well and the plate was kept stationary for 5 min for fixation and staining the cells. After fixation and staining, the cells were washed with water and were air-dried. Then the sum of the colony area (mm^2) of the stained cancer cells was calculated by using an image analyzer PCA-11 (SystemScience). From the calculated values, the inhibition rate (%) of the compound against the colony forming activity was obtained based on the following equation.
Inhibition Rate (%) against the colony forming activity=(1−A/B)×100
A: Sum of Colony Areas in the Group Treated with 1 μM of the Test Compound
B: Sum of Colony Areas in the Control Group

Rat white adipocytes [3] = test: Stimulation of differentiation of the adipocytes (Oil Red O); format: cell-based; details: 100 nM test compound, 5 days, Oil Red O ABS550, control = 100%, blank = 0%, Table 7; for activity at 0.1 µM: Rattus norvegicus, Adipocyte, 120 h, read-out: Rate of Differentiation (%)
Procedure, shortened: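 Rat white adipocytes, 5,000 cells/well, cultured 5 days in differentiation-inducing medium with test compound at final 100 nM (0.1% DMSO). Cells fixed, stained with Oil Red O, dye extracted in DMSO and read at 550 nm; differentiation rate expressed relative to vehicle control (100%) and cell-free blank (0%).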

leptin production = test: Enhancing activity for leptin production in adipocytes (ELISA); format: cell-based, rat; details: 24 hr, leptin concentration as % of control group
Procedure, shortened: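 Collagenase-dispersed epididymal adipocytes from 6-week-old male Wistar Imamichi rats, cultured in DMEM/F-12 (1:1) with test compound at final 1 µM, 100 nM, 10 nM or 1 nM (0.1% DMSO) for 24 h at 37 °C, 5% CO2. Leptin in filtrate measured by ELISA; activity = treated/DMSO-control leptin × 100 (%).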

Rat white adipocytes [4] = test: Inhibition of the differentiation of adipocytes (Oil Red O); format: cell-based; details: Rattus norvegicus, Adipocyte, 120 h, 100 nM test compound; 5 days; Oil Red O ABS550; control = 100%, blank = 0%; Table 3; read-out: Rate of Differentiation (%)
Procedure, shortened: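 Rat white preadipocytes, 5,000 cells/well, given differentiation medium with compound at 100 nM final (0.1% DMSO) for 5 days at 37 °C. Lipid stained with Oil Red O, eluted in DMSO, read at 550 nm; differentiation % relative to DMSO control (100%) and blank (0%).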

SMILES	activity at 0.1 µM [1]	inhibition at 1 µM [2]	activity at 0.1 µM (Rat white adipocytes [3])	also measured
Cc1cccc(NC(=O)c2cc([N+](=O)[O-])ccc2Cl)c1 [Example 11, N-(3-Methylphenyl)-(2-chloro-5-nitrophenyl)carboxamide]	67.3%	15%		
CCc1cccc(NC(=O)c2cc([N+](=O)[O-])ccc2Cl)c1 [Example 14, N-(3-Ethylphenyl)-(2-chloro-5-nitrophenyl)carboxamide]	82.1%	16%	121%	
CCCCOc1ccc(NC(=O)c2cc([N+](=O)[O-])ccc2Cl)cc1 [Example 17, N-(4-Butyloxyphenyl)-(2-chloro-5-nitrophenyl)carboxamide]	91.9%	30%	114%	
O=C(Nc1nc2ccccc2s1)c1cc([N+](=O)[O-])ccc1Cl [Example 33, N-(Benzothiazol-2-yl)-(2-chloro-5-nitrophenyl)carboxamide]	86.1%	60%	127%	
CC(C)(C)OC(=O)Nc1ccc(NC(=O)c2cc([N+](=O)[O-])ccc2Cl)cc1 [Example 45, N-[4-(tert-Butyloxycarbonylaminophenyl)]-(2-chloro-5 nitrophenyl)carboxamide]				Rate of Uptake (%) of [2-14C] acetic acid [1]: 68.9%; Inhibition Rate (%) against the colony forming activity [2]: 32.0%
O=C(Nc1cccc2ncccc12)c1cc([N+](=O)[O-])ccc1Cl [Example 56, N-(5-Quinolinyl)-(2-chloro-5-nitrophenyl)carboxamide]	32.4%	6%	114%	
O=C(Nc1nc2c(Cl)cccc2s1)c1cc([N+](=O)[O-])ccc1Cl [Example 69, N-(4-Chlorobenzothiazol-2-yl)-(2-chloro-5-nitrophenyl)carboxamide]	57%	84%	135%	
O=C(Nc1cc(-c2ccccc2)[nH]n1)c1cc([N+](=O)[O-])ccc1Cl [Example 72, N-(5-Phenylpyrazol-3-yl)-(2-chloro-5-nitrophenyl)carboxamide]	76.7%	39%	124%	
O=C(Nc1ccc(S(=O)(=O)Nc2ncccn2)cc1)c1cc([N+](=O)[O-])ccc1Cl [Example 95, N-[4-[(Pyrimidin-2-yl)aminosulfonyl]phenyl]-(2-chloro-5-nitrophenyl)carboxamide]	86.3%	1%	115%	
Cc1cc(NS(=O)(=O)c2ccc(NC(=O)c3cc([N+](=O)[O-])ccc3Cl)cc2)nc(C)n1 [Example 98, N-[[4-(2,6-Dimethylpyrimidin-4-yl)aminosulfonyl]phenyl]-(2-chloro-5-nitrophenyl)carboxamide]				Facilitating activity to produce leptin (leptin production; 1 μM): 117.0%; Facilitating activity to produce leptin (leptin production; 100 nm): 110.1%; Rate of Uptake (%) of [2-14C] acetic acid [1]: 89.1%; Inhibition Rate (%) against the colony forming activity [2]: 25.0%
O=C(Nc1ccc(S(=O)(=O)Nc2ccccn2)cc1)c1cc([N+](=O)[O-])ccc1Cl [Example 100, N-[4-[(Pyridin-2-yl)aminosulfonyl]phenyl]-(2-chloro-5-nitrophenyl)carboxamide]		50%		
COC(=O)c1cccc(NC(=O)c2cc([N+](=O)[O-])ccc2Cl)c1 [Example 143, Methyl 3-(2-chloro-5-nitrobenzoylamino)benzoate]	60.1%	25%		activity at 0.1 µM (Rat white adipocytes [4]): 84.9%
Cl.O=C(Nc1ccc(-c2ccccn2)cc1)c1cc([N+](=O)[O-])ccc1Cl [Example 147, N-[4-(Pyridin-2-yl)phenyl]-(2-chloro-5-nitrophenyl)carboxamide Hydrochloride]		19%		Rate of Uptake (%) of [2-14C] acetic acid [1]: 76.2%; Rate of Differentiation (%) (Rat white adipocytes [3]): 115.5%

Source: patent publication US20030134859A1 (SANKYO COMPANY, LIMITED, priority 2000, published 2003)
